Data on one molecule can be found in publication PMC7293031 (Nucleic Acids Research, 2020).

The target in assay [1] is T1, PvrA (Pseudomonas aeruginosa, UniProt Q9HZP1, R136A).
T1 sequence (Q9HZP1 1-212 R136A): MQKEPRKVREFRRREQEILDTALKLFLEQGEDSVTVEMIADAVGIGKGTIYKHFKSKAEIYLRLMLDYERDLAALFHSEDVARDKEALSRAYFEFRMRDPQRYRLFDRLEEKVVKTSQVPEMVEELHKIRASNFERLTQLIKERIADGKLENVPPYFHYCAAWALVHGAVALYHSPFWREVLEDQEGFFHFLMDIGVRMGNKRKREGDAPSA
The experiment in a line: ITC. The format is binding.

Assay [2] concerns the target T2, PvrA (Pseudomonas aeruginosa, UniProt Q9HZP1).
T2 sequence (Q9HZP1 1-212): T1 sequence (Q9HZP1 1-212 R136A)
Description: ITC at […]°C. It counts as binding.

`CCCCCCCCCCCCCCCC(=O)SCCNC(=O)CCNC(=O)[C@H](O)C(C)(C)COP(=O)(O)OP(=O)(O)OC[C@H]1O[C@@H](n2cnc3c(N)ncnc32)[C@H](O)[C@@H]1OP(=O)(O)O` [palmitoyl-coenzyme A]: the Kd at PvrA [1] was 262 µM; on PvrA [2], 31 µM.

The term Kd denotes a measure of binding affinity in units of concentration. High values mean weaker binding, low ones tighter binding.
